Source: publication PMC6089664 (Clinical pharmacology and therapeutics, 2017)
Read-outs that look alike come from different tables or passages of the source.

Key:
serum IP-10 = assay: Correlation of AUC24,SS with serum CXCL10/IP-10 levels; type: in vivo, human; conditions: 189 observations in 18 patients, linear mixed model, p-value for slope 0.0002
25-gene IFN score = assay: Correlation of AUC24,SS with whole blood 25-gene IFN score; type: in vivo, human; conditions: subset (5) of CANDLE patients
[1] = cited from earlier work
[2] = Population pharmacokinetic; type: in vivo, human; conditions: for AUC24,SS/Dose: AUC24,SS/total daily dose
[3] = 18 patients, 54 patient-years of exposure
[4] = popPK final model, 18 patients, oral

## CCS(=O)(=O)N1CC(CC#N)(n2cc(-c3ncnc4[nH]ccc34)cn2)C1 [baricitinib, Baricitinib]
Serum IP-10
  slope of correlation of AUC24,SS with serum IP-10 levels: −0.197
[3]
  patients who developed BK viremia: 44%
  patients with Herpes Zoster: 1 patient
Mean exposure 35.4 months
  deaths during the program: No deaths
Over 54 patient-years
  most frequently reported TEAEs: Upper respiratory tract infection
25-gene IFN score
  AUC24,SS at which CANDLE patients normalized their IFN scores: 1500 to 2000 nM·h
[1]; RA population
  half-life: 12.5 h
[1]; healthy adult subjects
  half-life: 10 h
[1]; moderate and severe renal impairment, ref data on file, Eli Lilly and Company
  effect of renal impairment on Cmax: minimal effect
[1]; psoriasis patients
  half-life: 12.8 h
[2]; 20–40kg, eGFR ≥120 mL/min/1.73 m^2, initial dose 6 mg/day BID
  projected initial exposure (AUC24,SS) with proposed starting dose: 1077 to 2688 nM·h
[2]; <20kg, eGFR ≥120 mL/min/1.73 m^2, initial dose 6 mg/day TID
  projected initial exposure (AUC24,SS) with proposed starting dose: 1769 to 2112 nM·h
[2]; >40kg, eGFR ≥120 mL/min/1.73 m^2, initial dose 8 mg/day BID
  projected initial exposure (AUC24,SS) with proposed starting dose: 1082 to 1958 nM·h
[2]; CL/Ftypical=9.74×(eGFR/146.82)^0.444
  Covariate effect of GFR on Clearance, parameter for GFR-CL (%SEE): 0.444 (24.8%)
[2]; V/Ftypical = 67.1 × e^0.0192·(WTV−27.2)
  Covariate effect of Weight on V/F, parameter for WTV-V (%SEE): 0.0192 (15.0%)
[2]; all patients, final PK assessments
  geometric mean AUC24,SS at clinically effective doses: ~ 2388 nM*h
[2]; dosing range of 1–14 mg daily
  dose proportionality of PK: dose linearity
[2]; eGFR ≥120 ml/min/1.73 m^2, 20–40kg (n=5), geometric mean (%CV)
  AUC24,SS/Dose: 292 nM·h/mg
[2]; eGFR ≥120 ml/min/1.73 m^2, <20kg (n=2), geometric mean (%CV)
  AUC24,SS/Dose: 322 nM·h/mg
[2]; eGFR ≥120 ml/min/1.73 m^2, >40kg (n=5), geometric mean (%CV)
  AUC24,SS/Dose: 193 nM·h/mg
[2]; human, plasma, oral, 6 mg/day, AUC24,SS, eGFR <120 ml/min/1.73 m^2, <20kg (n=2), final PK visit, geometric mean (%CV)
  AUC: 3.08 µM·h
[2]; human, plasma, oral, 6.9 mg/day
  CL/F: 5.33 mL/min/kg
[2]; human, plasma, oral, 6.9 mg/day, t1/2, eGFR ≥120 ml/min/1.73 m^2, 20–40kg (n=5), final PK visit, geometric mean (%CV)
  half-life: 5 h
[2]; human, plasma, oral, 8 mg/day
  CL/F: 9.33 mL/min/kg
[2]; human, plasma, oral, 8 mg/day, AUC24,SS, eGFR ≥120 ml/min/1.73 m^2, <20kg (n=2), final PK visit, geometric mean (%CV)
  AUC: 2.58 µM·h
[2]; human, plasma, oral, 8 mg/day, eGFR ≥120 ml/min/1.73 m^2, <20kg (n=2), final PK visit, geometric mean (%CV)
  Cmax: 171 nM
[2]; human, plasma, oral, 8 mg/day, t1/2, eGFR ≥120 ml/min/1.73 m^2, <20kg (n=2), final PK visit, geometric mean (%CV)
  half-life: 4.4 h
[2]; human, plasma, oral, 10 mg/day, t1/2, eGFR ≥120 ml/min/1.73 m^2, >40kg (n=5), final PK visit, geometric mean (%CV)
  half-life: 7 h
[2]; human, plasma, oral, AUC24,SS, eGFR <120 ml/min/1.73 m^2, >40kg (n=3), final PK visit, geometric mean (%CV)
  AUC: 2.53 µM·h
[2]; human, plasma, oral, AUC24,SS, eGFR ≥120 ml/min/1.73 m^2, 20–40kg (n=5), final PK visit, geometric mean (%CV)
  AUC: 2.02 µM·h
[2]; human, plasma, oral, AUC24,SS, eGFR ≥120 ml/min/1.73 m^2, >40kg (n=5), final PK visit, geometric mean (%CV)
  AUC: 1.94 µM·h
[2]; human, plasma, oral, eGFR <120 ml/min/1.73 m^2, <20kg (n=2), final PK visit, geometric mean (%CV)
  Cmax: 229 nM
[2]; human, plasma, oral, eGFR <120 ml/min/1.73 m^2, >40kg (n=3), final PK visit, geometric mean (%CV)
  Cmax: 180 nM
[2]; human, plasma, oral, eGFR ≥120 ml/min/1.73 m^2, 20–40kg (n=5), final PK visit, geometric mean (%CV)
  Cmax: 150 nM
[2]; human, plasma, oral, eGFR ≥120 ml/min/1.73 m^2, >40kg (n=5), final PK visit, geometric mean (%CV)
  Cmax: 136 nM
[2]; human, plasma, oral, estimated half-life, patient O3, >40 kg, eGFR 54–76 mL/min/1.73 m^2
  half-life: 17 to 19.2 h
[2]; human, plasma, oral, geometric mean AUC24,SS at clinically effective doses, all patients, final PK assessments
  AUC: 2.39 µM·h
[2]; human, plasma, oral, t1/2, eGFR <120 ml/min/1.73 m^2, <20kg (n=2), final PK visit, geometric mean (%CV)
  half-life: 4.8 h
[2]; human, plasma, oral, t1/2, eGFR <120 ml/min/1.73 m^2, >40kg (n=3), final PK visit, geometric mean (%CV)
  half-life: 7.8 h
[2]; human, plasma, po
  Vd/F: 67.1 L
[2]; [4]
  Absorption duration D1, population estimate (%SEE): 0.971 (14.8%) hr
  Apparent Clearance CL/F, population estimate (%SEE): 9.74 (9.57%) L/hr
